No end group written: not given here.
Experiments:
[1] = 31P solid-state NMR of Lipid II in liposomes; type: binding; details: DOPC vesicles with 2 mol % Lys-Lipid II, 20 mM HEPES, 100 mM NaCl, pH 8; 200 nmol antibiotic, 100 nmol Lipid II; 500 MHz, 10 kHz MAS, 270 K
Experimental: Multi-lamellar vesicles of DOPC doped with 2 mol % Lys-Lipid II in buffer (20 mm HEPES, 100 mm NaCl, and pH = 8) were collected by centrifugation (60,000 × g) and loaded into 3.2 mm ssNMR rotors. For 3.2 mm rotors, we used 200 nmol of antibiotic with 100 nmol of Lipid II. The 1D ^31P ssNMR experiments were performed at 500 MHz (^1H frequency) magnetic field using 10 kHz magic angle spinning (MAS) at 270 K sample temperature.

[2] = test system: S. aureus ATCC15975 (MRSA); assay: Spot-on-lawn assay with Lipid II; type: cell-based, Staphylococcus aureus; details: brevibacillins 0.68 μg, nisin and daptomycin 1.36 μg; Lipid II 300 μM, 4 μl, at edge of halo; MHA, 37°C overnight
Experimental: An overnight cultured S. aureus ATCC15975 (MRSA) was added to 0.6% MHA (w/v, temperature 42°C) at a final concentration of 0.1% (v/v), and then, the mixture was poured to the plates 10 ml for each. The binding of peptide and Lipid II ([Hasper et al., 2006]) was further evaluated by spotting of purified Lipid II (300 μm, 4 μl) to the edge of inhibition halo of antibiotics (brevibacillins, 0.68 μg; nisin and daptomycin, 1.36 μg). Briefly, antibiotics were loaded to the agar plate. After the antibiotic solution drops had dried, purified Lipid II was spotted to the edge (identified by a pre-experiment) of inhibition halo of antibiotics ([Wang et al., 2020]). After the Lipid II solution drops had dried, the plates were transferred to a 37°C incubator for overnight incubation.

[3] = ref Varney et al., 2013; Bakhtiary et al., 2017; cited from earlier work
Experimental: To investigate the role of Lipid II-binding ability of brevibacillins in their membrane disruption capacity, CF leakage assays were performed using LUVs composed of DOPC with or without Lipid II and containing CF at self-quenching concentrations. LUVs-based CF leakage assay is widely used in the studies of the antibiotic mode of action ([Hasper et al., 2004]; [Smith et al., 2008]; [Slootweg et al., 2015]; [Bakhtiary et al., 2017]). Disruption of the vesicle membrane by certain compounds releases CF from the LUVs into the extra-vesicular milieu resulting in increased fluorescence signal (Figure ...

[4] = test system: S. aureus ATCC15975 (MRSA); assay: Time-killing assay; type: cell-based, Staphylococcus aureus; details: MHB, 37°C; for time to complete killing of all cells: 10 × MIC (nisin 40 μg/ml; brevibacillins 20 μg/ml), ≈ 5 × 10^6 cells per ml, 220 rpm, triplicate
Experimental: This assay was performed according to a previously described procedure ([Ling et al., 2015]; [Zhao et al., 2020b]). An overnight culture of cells [S. aureus ATCC15975 (MRSA)] was diluted 50-fold in MHB and incubated at 37°C with aeration at 220 rpm. Bacteria were grown to an OD600 of 0.5, and then, the concentration of cells was adjusted to ≈ 5 × 10^6 cells per ml. Bacteria were then challenged with nisin (40 μg/ml), brevibacillin (20 μg/ml), brevibacillin V (20 μg/ml), brevibacillin I (20 μg/ml), or brevibacillin 2V (20 μg/ml) in culture tubes at 37°C and 220 rpm (peptides at 10 × MIC, a desirable concentration at the site of infection). Bacteria not treated with peptides were used as negative controls. At desired time points, 200 μl aliquots were taken, centrifuged at 8,000 g for 2 min, and resuspended in 200 μl of MHB. 10-fold serially diluted samples were plated on MHA plates. After incubated at 37°C overnight, colonies were counted and c.f.u. per ml was calculated. Each experiment was performed in triplicate.

[5] = test system: S. aureus ATCC15975 (MRSA) membrane; assay: DiSC3(5) membrane potential assay; type: cell-based, Staphylococcus aureus; details: 2 × MIC
Experimental: Staphylococcus aureus ATCC15975 (MRSA) was grown to an OD600 of 0.8. The culture was pelleted at 5,000 × g for 5 min and washed three times in 10 mm HEPES with 10 mm glucose (pH 7.2). The cell density was normalized to an OD600 of 0.2, loaded with 2 μm DiSC3(5) dye, and incubated for 20 min in the dark for probe fluorescence to stabilize. After incubation, KCl was added to the cell suspension at a final concentration of 100 mm. Subsequently, the cell suspension was added to a 96-well microplate and incubation for 5 min; after that, antibiotics were added at a final concentration of 2 × MIC. Fluorescence was monitored for 25 min, with the antibiotics added after ~20 s. The excitation and emission wavelengths on the fluorescence spectrometer were adjusted to 622 nm and 670 nm, respectively. Representative examples from three technical replicates are shown.

HepG2 = details: Figure 1, ref Zhao et al., 2021; cited from earlier work
From the text: (§1) A vast number of bacterial non-ribosomally produced peptides (NRPs) have shown strong antimicrobial activity against pathogenic bacteria ([Cochrane et al., 2014]; [Cociancich et al., 2015]; [Hamamoto et al., 2015]; [Ling et al., 2015]; [Süssmuth and Mainz, 2017]). Lipo-tridecapeptides, a class of NRPs, show strong antimicrobial activity against Gram-positive pathogens, including antibiotic-resistant Staphylococcus aureus and Enterococcus spp. ([Barsby et al., 2001], [2006]; [Yang et al., 2016]; [Wu et al., 2019]; [Zhao et al., 2021]). However, many of these lipo-tridecapeptides have shown high ... || Figure 1 Structures of brevibacillins. The red color indicates the more hydrophobic amino acid residues of brevibacillin V, brevibacillin and brevibacillin I relative to brevibacillin 2V. MIC, the minimum inhibitory concentration against Staphylococcus aureus (MRSA). HC50, the 50% human blood cell hemolysis concentration. CC50, the 50% cell (HepG2) toxicity concentration.

human red blood cells = details: Figure 1, ref Zhao et al., 2021; cited from earlier work
From the text: as §1

[6] = ref Zhao et al., 2021; cited from earlier work
[7] = test system: Staphylococcus aureus (MRSA); details: Staphylococcus aureus (MRSA); Figure 1; ref Zhao et al., 2021; cited from earlier work
From the text: Figure 1 Structures of brevibacillins. The red color indicates the more hydrophobic amino acid residues of brevibacillin V, brevibacillin and brevibacillin I relative to brevibacillin 2V. MIC, the minimum inhibitory concentration against Staphylococcus aureus (MRSA). HC50, the 50% human blood cell hemolysis concentration. CC50, the 50% cell (HepG2) toxicity concentration. […] LUVs-based CF leakage assay is widely used in the studies of the antibiotic mode of action ([Hasper et al., 2004]; [Smith et al., 2008]; [Slootweg et al., 2015]; [Bakhtiary et al., 2017]). Disruption of the vesicle membrane by certain compounds releases CF from the LUVs into the extra-vesicular milieu resulting in increased fluorescence signal (Figure ...

[8] = test system: S. aureus ATCC15975 (MRSA); assay: Fluorescence microscopy, LIVE/DEAD BacLight (SYTO 9/propidium iodide); type: cell-based, Staphylococcus aureus; details: 2 × MIC (brevibacillins 4 μg/ml, nisin 8 μg/ml), 15 min, room temperature
Experimental: (§2) Staphylococcus aureus ATCC15975 (MRSA) was grown to an OD600 of 0.8. The culture was pelleted at 5,000 × g for 5 min and washed three times in 10 mm HEPES with 10 mm glucose (pH 7.2). After normalization of the cell density to an OD600 of 0.2 in 10 mm HEPES with 10 mm glucose (pH 7.2), a 2-fold MIC concentration of brevibacillins (4 μg/ml) or nisin (8 μg/ml) was added. At the same time, SYTO® 9 and propidium iodide (LIVE/DEAD Baclight Bacterial Viability Kit, Invitrogen) were added to the above cell suspensions. After incubation at room temperature for 15 min, peptides were removed and washed three times with 10 mm HEPES with 10 mm glucose (pH 7.2). Then, the cell suspensions were loaded on 1.5% agarose pads and analyzed by DeltaVision Elite microscope (Applied Precision; [Zhao and Kuipers, 2021]).

[9] = Pyrene-labeled Lipid II fluorescence quenching assay; type: binding; details: 50 μM DOPC LUVs with 0.5 mol % pyrene-labeled Lipid II, 20°C, ex 350 nm
Experimental: The effects of antibiotics on pyrene-labeled Lipid II were measured using 50 μm DOPC-based large unilamellar vesicles (LUVs) containing 0.5 mol % pyrene-labeled Lipid II ([Breukink et al., 2003]). Briefly, the LUVs were added to a quartz cuvette and titrated with nisin, brevibacillin, or brevibacillin 2V with stirring at 20°C. The fluorescence spectra were recorded between 360 and 600 nm (λex350 nm) using a Cary Eclipse Fluorescence Spectrophotometer (Agilent, United States).

[10] = membrane-embedded Lipid II; ref Islam et al., 2012; ‘t Hart et al., 2016; Bakhtiary et al., 2017; Chiorean et al., 2020; cited from earlier work
Experimental: After confirmation of the fact that brevibacillins bind to Lipid II, an ITC assay was performed to determine the binding affinity of brevibacillins for Lipid II. For this, 2 mol % Lipid II was incorporated into DOPC-based LUVs. […] Nisin, teixobactin, nukacin ISK-1, and lacticin 3147 ...

S. aureus (MRSA) = assay: Membrane permeability assay, concentration series (fluorescence microscopy); type: cell-based, Staphylococcus aureus; details: 100 nM and 400 nM, 15 min; ratio of membrane permeabilized cells; three independent experiments; p < 0.05
Experimental: as §2
GraphPad Prism 7.0 was used to fit the data of time-killing assay, DiSC3(5) assay, fluorescence quenching assay, ITC assay, and CF Leakage assay in Figures 3–7. The fluorescence images (ratio of membrane permeabilized cells) were quantified by the software Adobe Photoshop 2021. The Kd values of brevibacillins to Lipid II were calculated using the Nano Analyze Software (Waters LLC). The statistical significance of the data was assessed using Duncan’s multiple range test with the software SPSS Statistics 26; values of p < 0.05 were considered to be statistically significant.
Figure 7 Brevibacillins disrupt membrane permeability without the need for Lipid II binding. (A), Cartoon schematic of the assay used to assess membrane permeability disruption of brevibacillins. (B), CF releases (%) vs. time graph showing the effects of adding brevibacillins to DOPC-LUVs with 0.1% Lipid II; peptide concentrations were 100 nm; a, when peptides were added; and b, when 20% Triton X-100 added. (C), CF releases (%) vs. time graph showing the effects of adding brevibacillins to LUVs of pure DOPC; peptide concentrations were 100 nm; a, when peptides were added; and b, when 20% Triton X-100 was added. (D), fluorescence microscopic images of S. aureus (MRSA) after have been treated by a series concentrations of brevibacillins and nisin for 15 min. (E), the ratio of membrane permeabilized cells that was quantified by Adobe Photoshop 2021; the data are representative of three independent experiments.
To investigate the in vivo membrane disruption capacity of brevibacillin and brevibacillin 2V, a membrane permeability assay was performed with a series of concentrations of antibiotics. Nisin was used as a control.

For vancomycin [reference compound], the “31P signals of Lipid II pyrophosphate moiety” value [1] was “no changes observed for the Lipid II pyrophosphate signals”.
With daptomycin the “antimicrobial activity upon addition of purified Lipid II” value [2] was “kept its antimicrobial activity against S. aureus (MRSA)”.
For HNP-1: Lipid II-targeting antimicrobial, the “membrane disruption in Lipid II containing and Lipid II lacking LUVs” value [3] is given as “cause membrane disruption in both Lipid II containing LUVs and Lipid II lacking LUVs”.
For Brevibacillin V, the “killing kinetics / capacity, in words” value ([4]; 10 × MIC (brevibacillins 20 μg/ml; nisin 40 μg/ml)) was “intermediate killing capacity”, the “time to complete killing of all cells” value [4] was at most 2 h and the “speed of membrane permeabilization” value [5] was “appeared to act faster than brevibacillin 2V and the well-known pore-forming antibiotic nisin”. The “rank order of membrane disruption capacity” value ([5]; correlates with calculated hydrophobicity) was “brevibacillin I > brevibacillin > brevibacillin V > brevibacillin 2V”, the “CC50, 50% cell (HepG2) toxicity concentration” value (HepG2) was 9.89 ± 0.67 µg/mL and the “HC50, 50% human blood cell hemolysis concentration” value (human red blood cells) was 73.1 ± 1.4 mg/L. For the same substance, the “rank order of calculated hydrophobicity” value [6] was “brevibacillin I > brevibacillin > brevibacillin V > brevibacillin 2V” and the MIC [7] was 2 µg/mL.
In the case of “nisin: well-known Lipid II-targeting antibiotic, pore-forming, used as control (ITSISLCTPGCKTGALMGCNMKTATCHCSIHVSK; not fully specified (some residues, bridges); cysteine pairing not given here; UniProt P13068 24-57, looked up) [reference compound]”, the “membrane integrity (SYTO 9 / propidium iodide staining)” value [8] is reported as “turned red, indicative of a compromised membrane”, the “time to complete killing of all cells” value [4] is reported as at most 4 h and the “excimer fluorescence (about 490 nm)” value [9] is reported as “appearance of a fluorescence peak around 490 nm, indicating the formation of excimers”. For the same substance, the pyrene monomer fluorescence [9] was “clearly induced a decrease of pyrene monomer fluorescence”, the “antimicrobial activity upon addition of purified Lipid II” value [2] was “diminished” and the Kd [10] was 14.6 nM. The “membrane permeabilization capacity, comparison” value (S. aureus (MRSA)) was “significantly (p < 0.05) higher membrane permeabilization capacity than the brevibacillins”.
For lacticin 3147, the “membrane disruption in Lipid II containing and Lipid II lacking LUVs” value [3] is listed as “cause membrane disruption in both Lipid II containing LUVs and Lipid II lacking LUVs” and the Kd [10] is listed as 920 nM.

Source: article PMC8322648, “Brevibacillin 2V Exerts Its Bactericidal Activity via Binding to Lipid II and Permeabilizing Cellular Membranes” (Frontiers in Microbiology, 2021)
